Among the data in ChEMBL document CHEMBL1142918, “Carbonic anhydrase and matrix metalloproteinase inhibitors. Inhibition of human tumor-associated isozymes IX and cytosolic isozyme I and II with sulfonylated hydroxamates” (Bioorg Med Chem, 2007) are Ki and IC50 values, retold here.

Each structure is given as a SMILES string.

Some targets named below: Carbonic anhydrase 9 (Homo sapiens, UniProt Q16790); Carbonic anhydrase 1 (Homo sapiens, UniProt P00915); Carbonic anhydrase 2 (Homo sapiens, UniProt P00918).
The target in assay [1] is 72 kDa type IV collagenase (Homo sapiens, UniProt P08253).
Chain of 72 kDa type IV collagenase (P08253 whole entry): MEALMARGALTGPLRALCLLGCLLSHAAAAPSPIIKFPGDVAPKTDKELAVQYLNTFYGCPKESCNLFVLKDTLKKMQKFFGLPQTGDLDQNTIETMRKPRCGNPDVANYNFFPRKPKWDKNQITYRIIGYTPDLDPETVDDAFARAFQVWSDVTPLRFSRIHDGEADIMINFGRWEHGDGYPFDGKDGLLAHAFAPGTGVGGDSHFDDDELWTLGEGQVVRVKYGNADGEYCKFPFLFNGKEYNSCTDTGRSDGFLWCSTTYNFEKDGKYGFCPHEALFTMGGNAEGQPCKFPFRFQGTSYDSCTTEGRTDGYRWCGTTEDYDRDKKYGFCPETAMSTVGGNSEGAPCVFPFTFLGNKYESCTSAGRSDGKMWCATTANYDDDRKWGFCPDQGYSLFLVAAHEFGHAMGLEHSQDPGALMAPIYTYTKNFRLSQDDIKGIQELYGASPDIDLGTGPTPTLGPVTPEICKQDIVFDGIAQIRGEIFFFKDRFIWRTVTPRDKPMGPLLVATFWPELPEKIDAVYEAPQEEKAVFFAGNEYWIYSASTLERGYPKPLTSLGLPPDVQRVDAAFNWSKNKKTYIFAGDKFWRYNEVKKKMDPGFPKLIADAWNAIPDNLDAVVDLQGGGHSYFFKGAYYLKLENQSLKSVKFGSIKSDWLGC
Description: Inhibition of human recombinant MMP2 expressed in mouse myeloma cells
Assay [2] has as its target Matrix metalloproteinase-9 (Homo sapiens, UniProt P14780).
Description: Inhibition of human recombinant MMP9 expressed in mouse myeloma cells

Chain of Matrix metalloproteinase-9 (P14780 whole entry): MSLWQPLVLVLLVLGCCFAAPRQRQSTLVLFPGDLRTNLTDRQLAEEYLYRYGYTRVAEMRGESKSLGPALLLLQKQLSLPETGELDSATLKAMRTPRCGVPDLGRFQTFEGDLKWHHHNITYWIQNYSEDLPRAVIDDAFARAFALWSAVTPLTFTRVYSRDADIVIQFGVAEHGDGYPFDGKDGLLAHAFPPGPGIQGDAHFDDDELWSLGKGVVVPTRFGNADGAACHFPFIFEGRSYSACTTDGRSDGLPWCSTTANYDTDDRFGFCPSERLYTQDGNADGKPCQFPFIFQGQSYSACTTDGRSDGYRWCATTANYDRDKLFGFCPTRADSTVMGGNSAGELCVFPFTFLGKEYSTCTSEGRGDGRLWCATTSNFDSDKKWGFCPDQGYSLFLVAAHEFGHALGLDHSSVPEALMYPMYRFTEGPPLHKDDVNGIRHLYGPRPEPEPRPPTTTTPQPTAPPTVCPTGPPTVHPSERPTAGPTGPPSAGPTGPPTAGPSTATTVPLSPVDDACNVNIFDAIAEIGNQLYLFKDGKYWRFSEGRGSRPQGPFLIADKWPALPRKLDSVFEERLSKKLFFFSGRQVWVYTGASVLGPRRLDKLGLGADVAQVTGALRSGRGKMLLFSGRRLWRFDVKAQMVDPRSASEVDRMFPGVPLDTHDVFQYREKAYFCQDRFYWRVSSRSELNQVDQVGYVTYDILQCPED
Chain of Carbonic anhydrase 1 (P00915 whole entry): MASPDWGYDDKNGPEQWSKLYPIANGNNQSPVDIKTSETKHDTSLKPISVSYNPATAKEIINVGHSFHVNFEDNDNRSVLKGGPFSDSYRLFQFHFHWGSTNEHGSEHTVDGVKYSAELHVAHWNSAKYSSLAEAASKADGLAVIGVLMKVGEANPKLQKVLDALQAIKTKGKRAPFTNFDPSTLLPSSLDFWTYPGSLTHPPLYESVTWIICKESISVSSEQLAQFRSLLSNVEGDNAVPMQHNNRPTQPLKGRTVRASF
Description for Carbonic anhydrase 1: Inhibition of human recombinant carbonic anhydrase 1 by CO2 hydration method
Description for Carbonic anhydrase 2: Inhibition of human recombinant carbonic anhydrase 2 by CO2 hydration method
Description for Carbonic anhydrase 9: Inhibition of human recombinant carbonic anhydrase 9 by CO2 hydration method

For orientation: Ki means a measure of affinity in units of concentration, obtained from inhibition or displacement. The low end stands for tighter binding, the high end for weaker binding. What is called IC50 is the concentration needed to halve the response being measured. A high value points to weaker potency in that assay. For `O=C(CNOCc1ccccc1)NO`, the inhibition constant (Ki) at Carbonic anhydrase 9 came to 6.7 µM; at Carbonic anhydrase 1, 490 µM; at Carbonic anhydrase 2 it was 94 µM. For the same molecule, the values for the IC50 in assay [1] and in assay [2] were 94 µM and 256 µM, respectively.

As to `COc1ccc(S(=O)(=O)N(CC(=O)NO)OCc2ccccc2)cc1`, the inhibition constant Ki turned out to be 7.5 µM at Carbonic anhydrase 9, 0.88 µM at Carbonic anhydrase 1 and 0.096 µM on Carbonic anhydrase 2. Further, the half-maximal inhibitory concentration (IC50) came out at 1.06 µM in assay [1] and 0.87 µM in assay [2].

On to `COc1ccc(S(=O)(=O)N(CC(=O)NO)OC(C)C)cc1`, for which the Ki amounted to 9.5 µM on Carbonic anhydrase 9, 4.1 µM at Carbonic anhydrase 1 and 0.091 µM at Carbonic anhydrase 2. The half-inhibitory concentration (IC50) came to 4.9 µM in assay [1] and 3.4 µM in assay [2].

`CCCCCCCCCCCCCCON(CC(=O)NO)S(=O)(=O)c1ccc(OC)cc1`: the inhibition constant (Ki) was 7.4 µM on Carbonic anhydrase 9, 0.89 µM on Carbonic anhydrase 1 and 0.097 µM on Carbonic anhydrase 2. The half-inhibitory concentration (IC50) in assay [1] is 30 µM; in assay [2], 33 µM.

Take `O=C(CNOCc1ccc(Cl)cc1)NO`: the inhibition constant Ki on Carbonic anhydrase 9 was found to be 8.8 µM; on Carbonic anhydrase 1, 10 µM; on Carbonic anhydrase 2, 4.8 µM. The IC50 was 137 µM in assay [1] and 261 µM in assay [2].

`COc1ccc(S(=O)(=O)N(CC(=O)NO)OC2C3CC4CC(C3)CC2C4)cc1` (stereo not drawn): the figures for the inhibition constant (Ki) at Carbonic anhydrase 9, at Carbonic anhydrase 1 and on Carbonic anhydrase 2 were 7.8 µM, 0.9 µM and 0.096 µM, respectively. Besides, the IC50 in assay [1] was 1.98 µM; in assay [2], 2 µM.

As for `COc1ccc(S(=O)(=O)N(CC(=O)NO)OCc2ccc(OCc3ccccc3)cc2)cc1`, the figures for the inhibition constant (Ki) on Carbonic anhydrase 9, on Carbonic anhydrase 1 and on Carbonic anhydrase 2 were 8.7 µM, 5.9 µM and 0.095 µM, respectively. The IC50 in assay [1] stood at 2.1 µM; in assay [2], 1.83 µM.

For `CC(NOCc1ccc(Cl)cc1)C(=O)NO` (stereo not drawn), the Ki on Carbonic anhydrase 9 came out at 9.2 µM; at Carbonic anhydrase 1 it was 9.8 µM; on Carbonic anhydrase 2, 4.7 µM. The results for the half-maximal inhibitory concentration (IC50) in assay [1] and in assay [2] were 68 µM and 141 µM, respectively.

On to `CCCCC(NOCc1ccccc1)C(=O)NO` (stereo not drawn), for which the values for the inhibitory constant (Ki) on Carbonic anhydrase 9, on Carbonic anhydrase 1 and on Carbonic anhydrase 2 were 7.6 µM, 520 µM and 7.8 µM, respectively. The 50% inhibitory concentration (IC50) in assay [1] was found to be 33.7 µM; in assay [2] it was 81.5 µM.

In the case of `CCC(C)C(NOCc1ccccc1)C(=O)NO` (stereo not drawn), the figures for the inhibition constant Ki on Carbonic anhydrase 9, on Carbonic anhydrase 1 and at Carbonic anhydrase 2 were 7.1 µM, 435 µM and 267 µM, respectively. Also, the IC50 is 151 µM in assay [1] and 352 µM in assay [2].

`COc1ccc(S(=O)(=O)N(CC(=O)NO)OCc2ccc(Cl)cc2)cc1`: the Ki was 9.3 µM at Carbonic anhydrase 9, 156 µM at Carbonic anhydrase 1 and 4.2 µM on Carbonic anhydrase 2. The figures for the half-maximal inhibitory concentration (IC50) in assay [1] and in assay [2] were 1.5 µM and 0.33 µM, respectively.

On to `CCON(CC(=O)NO)S(=O)(=O)c1ccc(OC)cc1`, for which the Ki at Carbonic anhydrase 9 is 9 µM; on Carbonic anhydrase 1, 8.91 µM; on Carbonic anhydrase 2, 8.7 µM. The IC50 in assay [1] amounted to 9.6 µM; in assay [2] it was 2.2 µM.

Turning to `CCCCC(NOCc1ccc(Cl)cc1)C(=O)NO` (stereo not drawn), the results for the Ki at Carbonic anhydrase 9, at Carbonic anhydrase 1 and on Carbonic anhydrase 2 were 6.9 µM, 10.2 µM and 6.1 µM, respectively. In addition, the IC50 in assay [1] stood at 81.8 µM; in assay [2], 125 µM.

On to `CCC(C)ON(C(C(=O)NO)C(C)C)S(=O)(=O)c1ccc(OC)cc1` (stereo not drawn), for which the figures for the inhibitory constant (Ki) at Carbonic anhydrase 9, at Carbonic anhydrase 1 and at Carbonic anhydrase 2 were 9.2 µM, 9.7 µM and 9.6 µM, respectively. Further, the results for the IC50 in assay [1] and in assay [2] were 0.73 µM and 0.286 µM, respectively.

Regarding `COc1ccc(S(=O)(=O)N(OC(C)C)C(C(=O)NO)C(C)C)cc1` (stereo not drawn), the inhibition constant Ki at Carbonic anhydrase 9 amounted to 9.3 µM; on Carbonic anhydrase 1, 9 µM; on Carbonic anhydrase 2, 0.094 µM. Besides, the IC50 turned out to be 0.66 µM in assay [1] and 0.37 µM in assay [2].

Regarding `COc1ccc(S(=O)(=O)N(Cc2cccnc2)[C@@H](C(=O)NO)C(C)C)cc1` [CGS-27023A], the values for the inhibition constant (Ki) on Carbonic anhydrase 9, at Carbonic anhydrase 1 and at Carbonic anhydrase 2 were 7.8 µM, 281 µM and 8.6 µM, respectively.
